Assay type in all cases: cell-based
Test [1] concerns HT-29 human colon adenocarcinoma cells. The test is described as follows: MTT cell growth inhibition, HT-29. The conditions noted are these: for IC50: Homo sapiens, read-out: IC50 for cell growth inhibition; for Enhanced Potency: ratio of IC50 NSAID/POSH-NSAID, fold-enhancement over parent, HT-29.
For test [2], the system named is HCT-15 human colon adenocarcinoma cells. The test is described as follows: MTT cell growth inhibition, HCT 15. The conditions noted are these: for IC50: Homo sapiens, read-out: IC50 for cell growth inhibition; for Enhanced Potency: ratio of IC50 NSAID/POSH-NSAID, fold-enhancement over parent, HCT 15.
Test [3] relates to SW-480 human colon adenocarcinoma cells. The test is described as follows: MTT cell growth inhibition, SW480. The conditions noted are these: for IC50: Homo sapiens, read-out: IC50 for cell growth inhibition; for Enhanced Potency: ratio of IC50 NSAID/POSH-NSAID, fold-enhancement over parent, SW480.
Test [4] concerns MIA PaCa-2 human pancreatic cancer cells. The test is described as follows: MTT cell growth inhibition, MIAPaCa2. The conditions noted are these: for IC50: Homo sapiens, read-out: IC50 for cell growth inhibition; for Enhanced Potency: ratio of IC50 NSAID/POSH-NSAID, fold-enhancement over parent, MIAPaCa2.
The test system of test [5] is BxPC-3 human pancreatic cancer cells. The test is described as follows: MTT cell growth inhibition, BxPC3. The conditions noted are these: for IC50: Homo sapiens, read-out: IC50 for cell growth inhibition; for Enhanced Potency: ratio of IC50 NSAID/POSH-NSAID, fold-enhancement over parent, BxPC3.
For test [6], the system named is A549 human lung cancer cells. The test is described as follows: MTT cell growth inhibition, A549. The conditions noted are these: for IC50: Homo sapiens, read-out: IC50 for cell growth inhibition; for Enhanced Potency: ratio of IC50 NSAID/POSH-NSAID, fold-enhancement over parent, A549.
For test [7], the system named is LNCAP human prostate cancer cells. The test is described as follows: MTT cell growth inhibition, LNCAP. The conditions noted are these: 24 h; for IC50: Homo sapiens, read-out: IC50 for cell growth inhibition; for Enhanced Potency: ratio of IC50 NSAID/POSH-NSAID, fold-enhancement over parent, LNCAP.
Test [8] deals with Jurkats human leukemia cells. The test is described as follows: MTT cell growth inhibition, Jurkat. The conditions noted are these: 24 h; for IC50: Homo sapiens, read-out: IC50 for cell growth inhibition; for Enhanced Potency: ratio of IC50 NSAID/POSH-NSAID, fold-enhancement over parent.
Setting [9] is: MIA PaCa-2, 24 h, Pancreas MIAPaCa2, mean ± SEM of three determinations.
Setting [10] is: BXPC-3, 24 h, Pancreas BxPC3, mean ± SEM of three determinations.
Setting [11] is: 24 h, Lung A549, mean ± SEM of three determinations.
[12] abbreviates: Prostate LNCAP, mean ± SEM of three determinations.
[13] abbreviates: Leukemia Jurkat, mean ± SEM of three determinations.

Broadly, the IC50 is the point on the concentration scale where inhibition reaches its midpoint.

Where two headings read alike, the source gives them in different places.

Regarding `CC(=O)Oc1ccccc1C(=O)O` [ASA, aspirin, reference compound], the IC50 was > 5000 µM in test [1] (24 h, Colon HT-29, mean ± SEM of three determinations); > 5000 µM in test [2] (24 h, Colon HCT 15, mean ± SEM of three determinations); > 5000 µM in test [3] (24 h, Colon SW480, mean ± SEM of three determinations); > 5000 µM in test [4] (setting [9]); > 5000 µM in test [5] (setting [10]); > 5000 µM in test [6] (setting [11]). Further, the IC50 in test [7] (setting [12]) and in test [8] (setting [13]) was > 5000 µM throughout.
Take `COc1ccc2cc([C@H](C)C(=O)O)ccc2c1` [NAP, naproxen, reference compound]: the IC50 in test [4] (setting [9]) worked out at 3200 µM; in test [5] (setting [10]), 2600 µM; in test [6] (setting [11]), 2650 µM; in test [7] (setting [12]), 2990 µM; in test [8] (setting [13]), 2380 µM.
For `CCOP(=O)(OCC)OCCSSCCOC(=O)c1ccccc1OC(C)=O` [POSH-ASA], the IC50 in test [1] (HT-29, 24 h) was found to be 0.082 µM; in test [2] (HCT-15, 24 h), 0.075 µM; in test [3] (SW480, 24 h), 0.092 µM; in test [4] (MIA PaCa-2, 24 h), 0.082 µM; in test [5] (BXPC-3, 24 h), 0.075 µM; in test [6] (A549, 24 h), 0.083 µM. Further, the IC50 was found to be 0.075 µM in test [7] (LNCaP) and 0.22 µM in test [8] (Jurkat). The “Enhanced Potency” value in test [1] (24 h) is listed as >60,000; in test [2] (24 h), >65,000; in test [3] (24 h), >50,000; in test [4] (24 h), >60,000; in test [5] (24 h), >65,000; in test [6] (24 h) it was >60,000. The “Enhanced Potency” value in test [7] is >65,000; in test [8] (Jurkat), >20,000.
As to `CCOP(=O)(OCC)OCCSSCCOC(=O)C(C)c1ccc2cc(OC)ccc2c1` (stereo not drawn) [POSH-NAP], the IC50 in test [1] (HT-29, 24 h) came out at 0.15 µM; in test [2] (HCT-15, 24 h), 0.12 µM; in test [3] (SW480, 24 h), 0.18 µM; in test [4] (MIA PaCa-2, 24 h), 0.088 µM; in test [5] (BXPC-3, 24 h), 0.1 µM; in test [6] (A549, 24 h) it was 0.16 µM. The values for the IC50 in test [7] (LNCaP) and in test [8] (Jurkat) were 0.13 µM and 0.17 µM, respectively. Further, the “Enhanced Potency” value is given as ~18,000 in test [1] (24 h); ~24,000 in test [2] (24 h); ~17,000 in test [3] (24 h); ~36,000 in test [4] (24 h); ~26,000 in test [5] (24 h); ~16,000 in test [6] (24 h). In addition, the “Enhanced Potency” value in test [7] is on record as ~25,000; in test [8] (Jurkat), ~14,000.

(Values after US10023555B2, “NSAIDs derivatives and uses thereof” (Research Foundation of The City University of New York, priority 2013, dated 2018).)
